Consider four compounds from patent US12479804B2, “Herbicidal compounds” (SYNGENTA CROP PROTECTION AG, priority 2019, dated 2025).

The test system of the first experiment is Echinochloa crus-galli (ECHCG). In words: Glasshouse herbicidal test, pre- and post-emergence, percentage damage to the plant. Type of experiment: in vivo. As to conditions: post-emergence, 250 g/h, evaluated after 13 days. The procedure: (§1) Seeds of a variety of test species are sown in standard soil in pots (Lolium perenne (LOLPE), Setaria faberi (SETFA), Alopecurus myosuroides (ALOMY), Echinochloa crus-galli (ECHCG), Avena fatua (AVEFA)). After cultivation for one day (pre-emergence) or after 8 days cultivation (post-emergence) under controlled conditions in a glasshouse (at 24/16° C., day/night; 14 hours light; 65% humidity), the plants are sprayed with an aqueous spray solution derived from the formulation of the technical active ingredient in acetone/water (50:50) solution containing 0.5% Tween 20 (polyoxyethelyene sorbitan monolaurate, CAS RN 9005-64-5). Compounds are applied at 250 g/h. The test plants are then grown in a glasshouse under controlled conditions in a glasshouse (at 24/16° C., day/night; 14 hours light; 65% humidity) and watered twice daily. After 13 days for pre and post-emergence, the test is evaluated for the percentage damage caused to the plant. The biological activities are shown in the following table on a five-point scale (5=80-100%; 4=60-79%; 3=40-59%; 2=20-39%; 1=0-19%).
In the case of `CC#Cc1cc(C)c(C2C(=O)CC3(C=CN(C(=O)c4ccccn4)CC3)CC2=O)c(C)c1` (stereo not shown) [Compound A48], the “ECHCG POST percentage damage caused to the plant (five-point scale)” value is on record as 5 (5=80-100%).
Take `CC#Cc1cc(C)c(C2C(=O)CC3(C=CN(C(=O)C4CC4)CC3)CC2=O)c(C)c1` (stereo not shown) [Compound A49]: the “ECHCG POST percentage damage caused to the plant (five-point scale)” value was 5 (5=80-100%).
Still for that read-out and setting: then `CC#Cc1cc(C)c(C2C(=O)CC3(C=CN(C(=O)COC(F)F)CC3)CC2=O)c(C)c1` (stereo not shown) [Compound A50], with 5 (5=80-100%); and `CC#Cc1cc(C)c(C2C(=O)CC3(C=CN(C(=O)CC#N)CC3)CC2=O)c(C)c1` (stereo not shown) [Compound A51], with 5 (5=80-100%).

The same experiment, now with this note: pre-emergence, 250 g/h, evaluated after 13 days.
Consider `CC#Cc1cc(C)c(C2C(=O)CC3(C=CN(C(=O)c4ccccn4)CC3)CC2=O)c(C)c1` (stereo not shown) [Compound A48], for which the “ECHCG PRE percentage damage caused to the plant (five-point scale)” value was 5 (5=80-100%).
Same read-out and setting: then `CC#Cc1cc(C)c(C2C(=O)CC3(C=CN(C(=O)C4CC4)CC3)CC2=O)c(C)c1` (stereo not shown) [Compound A49], with 5 (5=80-100%); and `CC#Cc1cc(C)c(C2C(=O)CC3(C=CN(C(=O)COC(F)F)CC3)CC2=O)c(C)c1` (stereo not shown) [Compound A50], with 5 (5=80-100%); and `CC#Cc1cc(C)c(C2C(=O)CC3(C=CN(C(=O)CC#N)CC3)CC2=O)c(C)c1` (stereo not shown) [Compound A51], with 5 (5=80-100%).

A further experiment has as its system Alopecurus myosuroides (ALOMY). Described as above. Particulars: post-emergence, 250 g/h, evaluated after 13 days. The format is in vivo. The procedure:
as §1
In the case of `CC#Cc1cc(C)c(C2C(=O)CC3(C=CN(C(=O)c4ccccn4)CC3)CC2=O)c(C)c1` (stereo not shown) [Compound A48], the “ALOMY POST percentage damage caused to the plant (five-point scale)” value is reported as 5 (5=80-100%).
The same measure, in the same setting: as for `CC#Cc1cc(C)c(C2C(=O)CC3(C=CN(C(=O)C4CC4)CC3)CC2=O)c(C)c1` (stereo not shown) [Compound A49], the figure is 5 (5=80-100%); as for `CC#Cc1cc(C)c(C2C(=O)CC3(C=CN(C(=O)COC(F)F)CC3)CC2=O)c(C)c1` (stereo not shown) [Compound A50], 5 (5=80-100%); as for `CC#Cc1cc(C)c(C2C(=O)CC3(C=CN(C(=O)CC#N)CC3)CC2=O)c(C)c1` (stereo not shown) [Compound A51], 5 (5=80-100%).

The same experiment, now with this note: pre-emergence, 250 g/h, evaluated after 13 days.
For the compound `CC#Cc1cc(C)c(C2C(=O)CC3(C=CN(C(=O)c4ccccn4)CC3)CC2=O)c(C)c1` (stereo not shown) [Compound A48], the “ALOMY PRE percentage damage caused to the plant (five-point scale)” value (“ALOMY PRE percentage damage caused” for short) is 5 (5=80-100%).
For `CC#Cc1cc(C)c(C2C(=O)CC3(C=CN(C(=O)C4CC4)CC3)CC2=O)c(C)c1` (stereo not shown) [Compound A49], the “ALOMY PRE percentage damage caused” value is 5 (5=80-100%).
On to `CC#Cc1cc(C)c(C2C(=O)CC3(C=CN(C(=O)COC(F)F)CC3)CC2=O)c(C)c1` (stereo not shown) [Compound A50], for which the “ALOMY PRE percentage damage caused” value is given as 5 (5=80-100%).
Same read-out and setting: then `CC#Cc1cc(C)c(C2C(=O)CC3(C=CN(C(=O)CC#N)CC3)CC2=O)c(C)c1` (stereo not shown) [Compound A51], with 5 (5=80-100%).

The next experiment concerns Lolium perenne (LOLPE). The description is as above. The format is in vivo. Particulars: post-emergence, 250 g/h, evaluated after 13 days. The procedure:
as §1
As to `CC#Cc1cc(C)c(C2C(=O)CC3(C=CN(C(=O)c4ccccn4)CC3)CC2=O)c(C)c1` (stereo not shown) [Compound A48], the “LOLPE POST percentage damage caused to the plant (five-point scale)” value is given as 5 (5=80-100%).
On the same count and under the same terms, then `CC#Cc1cc(C)c(C2C(=O)CC3(C=CN(C(=O)C4CC4)CC3)CC2=O)c(C)c1` (stereo not shown) [Compound A49], with 5 (5=80-100%); and `CC#Cc1cc(C)c(C2C(=O)CC3(C=CN(C(=O)COC(F)F)CC3)CC2=O)c(C)c1` (stereo not shown) [Compound A50], with 5 (5=80-100%); and `CC#Cc1cc(C)c(C2C(=O)CC3(C=CN(C(=O)CC#N)CC3)CC2=O)c(C)c1` (stereo not shown) [Compound A51], with 5 (5=80-100%).

Staying with this experiment, now noted: pre-emergence, 250 g/h, evaluated after 13 days.
Regarding `CC#Cc1cc(C)c(C2C(=O)CC3(C=CN(C(=O)c4ccccn4)CC3)CC2=O)c(C)c1` (stereo not shown) [Compound A48], the “LOLPE PRE percentage damage caused to the plant (five-point scale)” value was 5 (5=80-100%).
For the compound `CC#Cc1cc(C)c(C2C(=O)CC3(C=CN(C(=O)C4CC4)CC3)CC2=O)c(C)c1` (stereo not shown) [Compound A49], the “LOLPE PRE percentage damage caused to the plant (five-point scale)” value is on record as 5 (5=80-100%).
Still for that read-out and setting: then `CC#Cc1cc(C)c(C2C(=O)CC3(C=CN(C(=O)COC(F)F)CC3)CC2=O)c(C)c1` (stereo not shown) [Compound A50], with 5 (5=80-100%); and `CC#Cc1cc(C)c(C2C(=O)CC3(C=CN(C(=O)CC#N)CC3)CC2=O)c(C)c1` (stereo not shown) [Compound A51], with 5 (5=80-100%).

The test system of the next experiment is Avena fatua (AVEFA). The experiment is described as above. The format is in vivo. Particulars: post-emergence, 250 g/h, evaluated after 13 days. The procedure:
as §1
With `CC#Cc1cc(C)c(C2C(=O)CC3(C=CN(C(=O)c4ccccn4)CC3)CC2=O)c(C)c1` (stereo not shown) [Compound A48], the “AVEFA POST percentage damage caused to the plant (five-point scale)” value (shortened to “AVEFA POST percentage damage caused”) is reported as 5 (5=80-100%).
With `CC#Cc1cc(C)c(C2C(=O)CC3(C=CN(C(=O)C4CC4)CC3)CC2=O)c(C)c1` (stereo not shown) [Compound A49], the “AVEFA POST percentage damage caused” value is reported as 5 (5=80-100%).
In the case of `CC#Cc1cc(C)c(C2C(=O)CC3(C=CN(C(=O)COC(F)F)CC3)CC2=O)c(C)c1` (stereo not shown) [Compound A50], the “AVEFA POST percentage damage caused” value is listed as 5 (5=80-100%).
With `CC#Cc1cc(C)c(C2C(=O)CC3(C=CN(C(=O)CC#N)CC3)CC2=O)c(C)c1` (stereo not shown) [Compound A51], the “AVEFA POST percentage damage caused” value was 5 (5=80-100%).

The experiment is the same for the next values; noted with them: pre-emergence, 250 g/h, evaluated after 13 days.
For the compound `CC#Cc1cc(C)c(C2C(=O)CC3(C=CN(C(=O)c4ccccn4)CC3)CC2=O)c(C)c1` (stereo not shown) [Compound A48], the “AVEFA PRE percentage damage caused to the plant (five-point scale)” value is 5 (5=80-100%).
`CC#Cc1cc(C)c(C2C(=O)CC3(C=CN(C(=O)C4CC4)CC3)CC2=O)c(C)c1` (stereo not shown) [Compound A49]: the “AVEFA PRE percentage damage caused to the plant (five-point scale)” value is reported as 5 (5=80-100%).
Still for that read-out and setting: then `CC#Cc1cc(C)c(C2C(=O)CC3(C=CN(C(=O)COC(F)F)CC3)CC2=O)c(C)c1` (stereo not shown) [Compound A50], with 5 (5=80-100%).
On the same count and under the same terms, as for `CC#Cc1cc(C)c(C2C(=O)CC3(C=CN(C(=O)CC#N)CC3)CC2=O)c(C)c1` (stereo not shown) [Compound A51], the figure is 5 (5=80-100%).

The next experiment concerns Setaria faberi (SETFA). The experiment is described as above. Particulars: post-emergence, 250 g/h, evaluated after 13 days. Type of experiment: in vivo. The procedure:
as §1
For the compound `CC#Cc1cc(C)c(C2C(=O)CC3(C=CN(C(=O)c4ccccn4)CC3)CC2=O)c(C)c1` (stereo not shown) [Compound A48], the “SETFA POST percentage damage caused to the plant (five-point scale)” value is given as 5 (5=80-100%).
As for `CC#Cc1cc(C)c(C2C(=O)CC3(C=CN(C(=O)C4CC4)CC3)CC2=O)c(C)c1` (stereo not shown) [Compound A49], the “SETFA POST percentage damage caused to the plant (five-point scale)” value is 5 (5=80-100%).
The same measure, in the same setting: then `CC#Cc1cc(C)c(C2C(=O)CC3(C=CN(C(=O)COC(F)F)CC3)CC2=O)c(C)c1` (stereo not shown) [Compound A50], with 5 (5=80-100%); and `CC#Cc1cc(C)c(C2C(=O)CC3(C=CN(C(=O)CC#N)CC3)CC2=O)c(C)c1` (stereo not shown) [Compound A51], with 5 (5=80-100%).

Still in this experiment, the particulars now being: pre-emergence, 250 g/h, evaluated after 13 days.
As to `CC#Cc1cc(C)c(C2C(=O)CC3(C=CN(C(=O)c4ccccn4)CC3)CC2=O)c(C)c1` (stereo not shown) [Compound A48], the “SETFA PRE percentage damage caused to the plant (five-point scale)” value (“SETFA PRE percentage damage caused” below) is recorded as 5 (5=80-100%).
Take `CC#Cc1cc(C)c(C2C(=O)CC3(C=CN(C(=O)C4CC4)CC3)CC2=O)c(C)c1` (stereo not shown) [Compound A49]: the “SETFA PRE percentage damage caused” value is listed as 5 (5=80-100%).
Regarding `CC#Cc1cc(C)c(C2C(=O)CC3(C=CN(C(=O)COC(F)F)CC3)CC2=O)c(C)c1` (stereo not shown) [Compound A50], the “SETFA PRE percentage damage caused” value is 5 (5=80-100%).
With `CC#Cc1cc(C)c(C2C(=O)CC3(C=CN(C(=O)CC#N)CC3)CC2=O)c(C)c1` (stereo not shown) [Compound A51], the “SETFA PRE percentage damage caused” value is recorded as 5 (5=80-100%).
